In general, inhibition refers to the percentage by which the read-out fell short of the control. The IC50 is the point on the concentration scale where inhibition reaches its midpoint.

The target of the assay is recombinant human SAE enzyme (Homo sapiens (Human), UniProt Q9UBT2). The assay is described as follows: SAE HTRF enzyme assay. The conditions noted are these: for inhibition at 0.111 µM / Percent Inhibition: Concentration 0.111 μM; for inhibition at 0.111 µM: read-out: Percent Inhibition; for IC50: class symbols A/B/C. The assay is classed as biochemical. The procedure, abridged: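 Enzyme reaction: 50 mM HEPES pH 7.5, 5 mM MgCl2, 250 μM GSH, 0.05% BSA, 0.5 μM ATP, 0.01 μM Ubc9-GST, 0.125 μM Sumo-Flag, 0.11 nM SAE; 105 min, 24° C. Stop/detect, 2 h, then HTRF. % inh or IC50.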

Structures are written as SMILES.

Chain of recombinant human SAE enzyme (Q9UBT2 whole entry): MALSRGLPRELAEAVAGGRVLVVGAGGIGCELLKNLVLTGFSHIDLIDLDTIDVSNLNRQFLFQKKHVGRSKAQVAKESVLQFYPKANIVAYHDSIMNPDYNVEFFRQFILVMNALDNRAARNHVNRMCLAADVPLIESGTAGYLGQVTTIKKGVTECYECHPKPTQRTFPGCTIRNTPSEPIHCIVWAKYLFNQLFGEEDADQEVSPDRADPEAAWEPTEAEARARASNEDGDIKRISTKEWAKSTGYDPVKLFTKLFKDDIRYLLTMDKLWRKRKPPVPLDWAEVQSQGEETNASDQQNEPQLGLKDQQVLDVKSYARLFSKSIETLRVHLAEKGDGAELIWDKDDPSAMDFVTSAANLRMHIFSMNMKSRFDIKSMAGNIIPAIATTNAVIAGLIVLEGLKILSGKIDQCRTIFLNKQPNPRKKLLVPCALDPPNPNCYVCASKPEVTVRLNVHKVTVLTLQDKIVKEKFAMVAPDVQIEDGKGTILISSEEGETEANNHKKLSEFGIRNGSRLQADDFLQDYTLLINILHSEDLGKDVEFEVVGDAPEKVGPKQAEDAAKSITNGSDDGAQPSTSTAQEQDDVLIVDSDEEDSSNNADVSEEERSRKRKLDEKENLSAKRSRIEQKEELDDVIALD
Chain of recombinant human SAE enzyme (Q9UBE0 whole entry partner): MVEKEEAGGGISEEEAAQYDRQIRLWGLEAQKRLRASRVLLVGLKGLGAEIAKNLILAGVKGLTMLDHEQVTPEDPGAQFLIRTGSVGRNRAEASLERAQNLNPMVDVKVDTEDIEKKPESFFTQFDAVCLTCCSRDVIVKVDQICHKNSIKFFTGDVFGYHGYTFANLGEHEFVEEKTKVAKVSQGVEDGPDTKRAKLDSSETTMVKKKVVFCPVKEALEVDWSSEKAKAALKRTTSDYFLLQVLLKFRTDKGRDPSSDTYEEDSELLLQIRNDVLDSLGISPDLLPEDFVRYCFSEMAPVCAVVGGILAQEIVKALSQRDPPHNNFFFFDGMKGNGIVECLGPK

As to `NS(=O)(=O)OC[C@H]1C[C@@H](Nc2ncncc2C(=O)c2ccc(-c3ccccc3Cl)o2)[C@H](O)[C@@H]1O` [I-158, [(1R,2R,3S,4R)-4-({5-[5-(2-chlorophenyl)-2-furoyl]pyrimidin-4-yl}amino)-2,3-dihydroxycyclopentyl]methyl sulfamate], the inhibition at 0.111 µM was found to be 86%.

For `Cc1sc(C(=O)c2cncnc2N[C@@H]2C[C@H](COS(N)(=O)=O)[C@@H](O)C2)cc1CN1CCc2cc(Cl)ccc21` [I-159, [(1R,2S,4R)-4-{[5-({4-[(5-chloro-2,3-dihydro-1H-indol-1-yl)methyl]-5-methyl-2-thienyl}carbonyl)pyrimidin-4-yl]amino}-2-hydroxycyclopentyl]methyl sulfamate], the inhibition at 0.111 µM came out at 91% and the IC50 was below 10 nM.

Consider `Cc1nn(Cc2csc(C(=O)c3cncnc3N[C@@H]3C[C@H](COS(N)(=O)=O)[C@@H](O)C3)c2)c2cnccc12` [I-160, [(1R,2S,4R)-2-hydroxy-4-{[5-({4-[(3-methyl-1H-pyrazolo[3,4-c]pyridin-1-yl)methyl]-2-thienyl}carbonyl)pyrimidin-4-yl]amino}cyclopentyl]methyl sulfamate], for which the inhibition at 0.111 µM came to 92% and the IC50 was below 10 nM.

For `NS(=O)(=O)OC[C@H]1C[C@@H](Nc2ncncc2C(=O)c2cc(COc3ccccc3I)cs2)C[C@@H]1O` [I-161, [(1R,2S,4R)-2-Hydroxy-4-{[-({4-(2-iodophenoxy)methyl]-2-thienyl}carbonyl)pyrimidin-4-yl]amino}cyclopentyl]methyl sulfamate], the “Percent Inhibition” value came out at 91 and the half-inhibitory concentration (IC50) is below 10 nM.

With `NS(=O)(=O)OC[C@H]1C[C@@H](Nc2ncncc2C(=O)c2cc(Cc3ccccc3)c(Cl)s2)[C@@H](F)[C@@H]1O` [I-162, [(1R,2R,3R,4R)-4-({5-[(4-Benzyl-5-chloro-2-thienyl)carbonyl]pyrimidin-4-yl}amino) 3-fluoro-2-hydroxycyclopentyl]methyl sulfamate], the inhibition at 0.111 µM turned out to be 91% and the IC50 lay within 10 to 100 nM.

For `NS(=O)(=O)OC[C@H]1C[C@@H](Nc2ncncc2C(=O)c2cc(COc3ccc(Cl)cc3)cs2)C[C@@H]1O` [I-163, [(1R,2S,4R)-4-{[5-({4-[(4-chlorophenoxy)methyl]-2-thienyl}carbonyl)pyrimidin-4-yl]amino}-2-hydroxycyclopentyl]methyl sulfamate], the inhibition at 0.111 µM came to 92% and the IC50 fell in the range of 10 to 100 nM.

Turning to `C=C(c1cccc(Br)c1)c1csc(C(=O)c2cncnc2N[C@@H]2C[C@H](COS(N)(=O)=O)[C@@H](O)C2)c1` [I-164, [(1R,2S,4R)-4-{[5-({4-[1-(3-Bromophenyl)vinyl]-2-thienyl}carbonyl)pyrimidin-4-yl]amino)-2-hydroxycyclopentyl]methyl sulfamate], the inhibition at 0.111 µM came to 92% and the IC50 is 10 to 100 nM.

Take `NS(=O)(=O)OC[C@H]1C[C@@H](Nc2ncncc2C(=O)c2cc(Cc3ccccc3Cl)cs2)C[C@@H]1O` [I-165, {(1R,2S,4R)-4-[(5-{[4-(2-chlorobenzyl)-2-thienyl]carbonyl}pyrimidin-4-yl)amino]-2-hydroxycyclopentyl}methyl sulfamate]: the inhibition at 0.111 µM is 91% and the IC50 fell in the range of 10 to 100 nM.

Take `NS(=O)(=O)OC[C@H]1C[C@@H](Nc2ncncc2C(=O)c2cc(CN3CCc4ccccc4C3)cs2)C[C@@H]1O` [I-167, {(1R,2S,4R)-4-[(5-{[4-(3,4-dihydroisoquinolin-2(1H)-ylmethyl)-2-thienyl]carbonyl}pyrimidin-4-yl)amino]-2-hydroxycyclopentyl}methyl sulfamate]: the inhibition at 0.111 µM was found to be 89% and the IC50 lay within 10 to 100 nM.

`NS(=O)(=O)OC[C@H]1C[C@@H](Nc2ncncc2C(=O)c2cc(CN3CCc4sccc4C3)cs2)C[C@@H]1O` [I-168, {(1R,2S,4R)-4-[(5-{[4-(6,7-dihydrothieno[3,2-c]pyridin-5(4H)-ylmethyl)-2-thienyl]carbonyl}pyrimidin-4-yl)amino]-2-hydroxycyclopentyl}methyl sulfamate]: the inhibition at 0.111 µM stood at 90% and the IC50 was 10 to 100 nM.

For `Cc1ccn(Cc2csc(C(=O)c3cncnc3N[C@@H]3C[C@H](COS(N)(=O)=O)[C@@H](O)C3)c2)c1` [I-170, [(1R,2S,4R)-2-Hydroxy-4-({[5-({4-[(3-methyl-1H-pyrrol-1-yl)methyl]-2-thienyl}carbonyl)pyrimidin-4-yl]amino}cyclopentyl]methyl sulfamate], the “Percent Inhibition” value is listed as 91 and the IC50 was 10 to 100 nM.

As to `Cc1sc(C(=O)c2cncnc2N[C@@H]2C[C@H](COS(N)(=O)=O)[C@@H](O)C2)cc1CN1CCc2cccnc21` [I-171, {(1R,2S,4R)-4-[(5-{[4-(2,3-dihydro-1H-pyrrolo[2,3-b]pyridin-1-ylmethyl)-5-methyl-2-thienyl]carbonyl}pyrimidin-4-yl)amino]-2-hydroxycyclopentyl}methyl sulfamate], the inhibition at 0.111 µM was 90% and the IC50 lay within 10 to 100 nM.

`NS(=O)(=O)OC[C@H]1C[C@@H](Nc2ncncc2C(=O)c2cc(CC3=CCSCC3)cs2)C[C@@H]1O` [I-173, {(1R,2S,4R)-4-[(5-{[4-(3,6-dihydro-2H-thiopyran-4-ylmethyl)-2-thienyl]carbonyl}pyrimidin-4-yl)amino]-2-hydroxycyclopentyl}methyl sulfamate]: the inhibition at 0.111 µM was found to be 86% and the IC50 lay in the range of 10 to 100 nM.

`NS(=O)(=O)OC[C@H]1C[C@@H](Nc2ncncc2C(=O)c2cc(Sc3cccc(Cl)c3)c(Cl)s2)C[C@@H]1O` [I-175, [(1R,2S,4R)-4-{[5-({5-chloro-4-[(3-chlorophenyl)sulfanyl]-2-thienyl}carbonyl)pyrimidin-4-yl]amino}-2-hydroxycyclopentyl]methyl sulfamate]: the inhibition at 0.111 µM is 90% and the IC50 was in the range of 10 to 100 nM.

Turning to `NS(=O)(=O)OC[C@H]1C[C@@H](Nc2ncncc2C(=O)c2cc(COc3ccccc3OC(F)(F)F)cs2)C[C@@H]1O` [I-176, [(1R,2S,4R)-2-hydroxy-4-({5-[(4-{[2-(trifluoromethoxy)phenoxy]methyl}-2-thienyl)carbonyl]pyrimidin-4-yl}amino)cyclopentyl]methyl sulfamate], the inhibition at 0.111 µM stood at 87% and the IC50 is 10 to 100 nM.

Take `NS(=O)(=O)OC[C@H]1C[C@@H](Nc2ncncc2C(=O)c2cc(CSc3ccccc3)cs2)C[C@@H]1O` [I-177, [(1R,2S,4R)-2-hydroxy-4-{[5-({4-[(phenylsulfanyl)methyl]-2-thienyl}carbonyl)pyrimidin-4-yl]amino}cyclopentyl]methyl sulfamate]: the inhibition at 0.111 µM was determined as 85% and the IC50 lay within 10 to 100 nM.

Regarding `NS(=O)(=O)OC[C@H]1C[C@@H](Nc2ncncc2C(=O)c2cc(CCc3ccc(Cl)cc3)cs2)C[C@@H]1O` [I-178, [(1R,2S,4R)-4-{[5-({4-[2-(4-chlorophenyl)ethyl]-2-thienyl}carbonyl)pyrimidin-4-yl]amino}-2-hydroxycyclopentyl]methyl sulfamate], the inhibition at 0.111 µM was found to be 87% and the IC50 is 10 to 100 nM.

Regarding `N#Cc1sc(C(=O)c2cncnc2N[C@@H]2C[C@H](COS(N)(=O)=O)[C@@H](O)C2)cc1Cc1cccc(Cl)c1` [I-179, {(1R,2S,4R)-4-[(5-{[4-(3-chlorobenzyl)-5-cyano-2-thienyl]carbonyl}pyrimidin-4-yl)amino]-2-hydroxycyclopentyl}methyl sulfamate], the inhibition at 0.111 µM amounted to 86% and the 50% inhibitory concentration (IC50) lay in the range of 10 to 100 nM.

On to `NS(=O)(=O)OC[C@H]1C[C@@H](Nc2ncncc2C(=O)c2cc(COc3cccc(Cl)c3Cl)cs2)C[C@@H]1O` [I-180, [(1R,2S,4R)-4-{[5-({4-[(2,3-dichlorophenoxy)methyl]-2-thienyl}carbonyl)pyrimidin-4-yl]amino}-2-hydroxycyclopentyl]methyl sulfamate], for which the inhibition at 0.111 µM was 84% and the half-maximal inhibitory concentration (IC50) was in the range of 10 to 100 nM.

On to `Cc1sc(C(=O)c2cncnc2N[C@@H]2C[C@H](COS(N)(=O)=O)[C@@H](O)C2)cc1S(=O)(=O)c1cccc(Cl)c1` [I-181, [(1R,2S,4R)-4-{[5-({4-[(3-chlorophenyl)sulfonyl]-5-methyl-2-thienyl}carbonyl)pyrimidin-4-yl]amino}-2-hydroxycyclopentyl]methyl sulfamate], for which the inhibition at 0.111 µM is 82% and the IC50 lay in the range of 10 to 100 nM.

On to `CCc1ccccc1OCc1csc(C(=O)c2cncnc2N[C@@H]2C[C@H](COS(N)(=O)=O)[C@@H](O)C2)c1` [I-182, [(1R,2S,4R)-4-{[5-({4-[(2-ethylphenoxy)methyl]-2-thienyl}carbonyl)pyrimidin-4-yl]amino}-2-hydroxycyclopentyl]methyl sulfamate], for which the inhibition at 0.111 µM is 82% and the IC50 lay within 10 to 100 nM.

Consider `COc1ccccc1CCc1csc(C(=O)c2cncnc2N[C@@H]2C[C@H](COS(N)(=O)=O)[C@@H](O)C2)c1` [I-183, [(1R,2S,4R)-2-Hydroxy-4-{[5-({4-[2-(2-methoxyphenyl)ethyl]-2-thienyl}carbonyl)pyrimidin-4-yl]amino}cyclopentyl]methyl sulfamate], for which the inhibition at 0.111 µM came out at 82% and the IC50 fell in the range of 10 to 100 nM.

Take `NS(=O)(=O)OC[C@H]1C[C@@H](Nc2ncncc2C(=O)c2cc(Cn3ccc4ccc(C(F)(F)F)cc43)cs2)C[C@@H]1O` [I-184, [(1R,2S,4R)-2-hydroxy-4-({5-[(4-{[6-(trifluoromethyl)-1H-indol-1-yl]methyl}-2-thienyl)carbonyl]pyrimidin-4-yl}amino)cyclopentyl]methyl sulfamate]: the inhibition at 0.111 µM worked out at 85% and the IC50 was 10 to 100 nM.

For `N#Cc1cccc(Cc2csc(C(=O)c3cncnc3N[C@@H]3C[C@H](COS(N)(=O)=O)[C@@H](O)C3)c2)c1` [I-185, {(1R,2S,4R)-4-[(5-{[4-(3-cyanobenzyl)-2-thienyl]carbonyl}pyrimidin-4-yl)amino]-2-hydroxycyclopentyl}methyl sulfamate], the inhibition at 0.111 µM is 80% and the IC50 lay in the range of 10 to 100 nM.
